Experimental data reported in patent publication US6245917A, “Crystalline sodium phenytoin monohydrate” (Warner-Lambert Company, priority 1999, dated 2001).

Test: Preliminary solubility studies, ethanol versus water
Assay type: physicochemical

Which “solubility in ethanol compared with water” value does the source give for `O=C1NC(=O)C(c2ccccc2)(c2ccccc2)N1` [sodium phenytoin] here?
The value was “less soluble in ethanol than it is in water”.
